The results in this text go back to article PMC8766756, “Insights on Cancer Cell Inhibition, Subcellular Activities, and Kinase Profile of Phenylacetamides Pending 1H-Imidazol-5-One Variants” (Frontiers in Pharmacology, 2022).

What all share (assay): PamChip tyrosine kinase microarray
What all share (format): biochemical
Settings in all cases: 0.1 µM, HL60 lysate

One assay addresses T1, EphA1 (P21709) (Homo sapiens, UniProt P21709).
T1 construct: purchased PamGene (PamChip PTK array, Upstream Kinase Analysis)
T1 sequence (P21709 26-976): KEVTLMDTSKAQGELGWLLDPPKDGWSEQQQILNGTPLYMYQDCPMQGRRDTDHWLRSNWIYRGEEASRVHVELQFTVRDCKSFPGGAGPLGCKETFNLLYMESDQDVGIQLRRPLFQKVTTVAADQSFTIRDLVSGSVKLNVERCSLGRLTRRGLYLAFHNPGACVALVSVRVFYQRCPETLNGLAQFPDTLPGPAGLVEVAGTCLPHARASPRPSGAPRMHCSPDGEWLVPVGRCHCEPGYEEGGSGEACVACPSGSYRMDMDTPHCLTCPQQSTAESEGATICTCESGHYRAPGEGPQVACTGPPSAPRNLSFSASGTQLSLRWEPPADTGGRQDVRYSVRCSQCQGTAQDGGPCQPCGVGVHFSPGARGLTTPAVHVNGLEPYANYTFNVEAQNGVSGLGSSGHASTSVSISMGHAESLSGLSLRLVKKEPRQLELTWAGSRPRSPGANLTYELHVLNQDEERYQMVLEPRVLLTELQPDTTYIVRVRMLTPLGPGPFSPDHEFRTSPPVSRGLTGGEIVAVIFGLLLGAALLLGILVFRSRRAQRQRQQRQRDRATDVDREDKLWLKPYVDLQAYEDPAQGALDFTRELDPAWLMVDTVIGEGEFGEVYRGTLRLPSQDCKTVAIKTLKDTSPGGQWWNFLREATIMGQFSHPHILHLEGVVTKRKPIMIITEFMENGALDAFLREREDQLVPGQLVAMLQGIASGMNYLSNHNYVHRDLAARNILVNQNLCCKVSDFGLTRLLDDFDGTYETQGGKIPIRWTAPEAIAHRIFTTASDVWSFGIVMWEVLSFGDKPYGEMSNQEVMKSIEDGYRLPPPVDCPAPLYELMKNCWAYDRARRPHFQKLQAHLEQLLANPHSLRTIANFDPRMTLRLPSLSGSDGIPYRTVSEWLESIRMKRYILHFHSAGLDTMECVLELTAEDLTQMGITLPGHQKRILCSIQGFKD
The protocol: (§1) The reproducible high potency of KIM-161 on leukemia cell lines was initially speculated to encompass Src tyrosine kinase inhibition. Even so, we also suspected that KIM-161 might be affecting other tyrosine kinases because the HL60 cells are not among the most Src-dependent highly proliferative cells ([Collins, 1987]). Therefore, a profiling of the kinase activities was performed after treatment with KIM-161 using PamChip® tyrosine kinase microarray. This analysis is based on incubation of cell lysate with 3D microarray that projects peptides specific for 143 tyrosine kinases. If a kinase is modified in the cells, it will be detected by phosphorylating its specific peptide in the microarray.
(§2) This test measured the activities of an array of tyrosine kinases of treated HL60 cells compared to the control (untreated cells) after incubation with KIM-161 for 48 h at concentrations of 0.001, 0.01, 0.1, 1.0, 10, and 50 µM. The log fold change (LFC) heat map was initially used to identify significant peptides affected at each concentration (Figure 5).
(§3) An Upstream Kinase Tool was used to generate a putative list of kinases responsible for phosphorylating the phosphosites on the PamChip®. It is an interpretation and is highly dependent on the contents of the underlying phosphorylation databases. Kinase score (Table 2) was used for ranking kinases based on their significance and specificity in terms of the set of peptides used for the corresponding kinase. Kinase statistics indicates the overall change of the peptide set that represents a certain kinase. Kinase statistics value of <0 indicates lower kinase activity in the lysate spiked with the compound and vice versa. Table 2 lists the 20 most changed kinases within treated HL60 cell lysates by 0.1 μM KIM-161.
(§4) Every compound had spiked into a leukemic (AML) cell line HL60 lysate at different concentrations (0.001, 0.01, 0.1, 1, 10, and 50 μM). In addition, DMSO had also spiked at a low concentration (2% v/v) to the HL60 lysate as the control. The samples were profiled on PamGene's tyrosine kinase (PTK) arrays in technical replicates, covering a total of 196 phosphorylation sites. The frozen leukemic HL60 cultured cell pellet was sent to PamGene. At PamGene, the cells were lysed in the presence of the lysis buffer and proteases inhibitor cocktail. The protein concentration was measured using the standard Bradford assay as per the PamGene SOPs. These lysates were further used for generating the PTK activity profiles. For spiking, KIM-161 was received in powder form and dissolved in DMSO at the PamGene facility, followed by storing it at −20°C in small aliquots. PamGene used its in-house bioinformatics toolbox in combination with other methods to generate the hypotheses of signaling pathways.

A further assay deals with T2, EphA4 (P54764) (Homo sapiens, UniProt P54764).
T2 construct: purchased PamGene (PamChip PTK array, Upstream Kinase Analysis)
T2 sequence (P54764 20-986): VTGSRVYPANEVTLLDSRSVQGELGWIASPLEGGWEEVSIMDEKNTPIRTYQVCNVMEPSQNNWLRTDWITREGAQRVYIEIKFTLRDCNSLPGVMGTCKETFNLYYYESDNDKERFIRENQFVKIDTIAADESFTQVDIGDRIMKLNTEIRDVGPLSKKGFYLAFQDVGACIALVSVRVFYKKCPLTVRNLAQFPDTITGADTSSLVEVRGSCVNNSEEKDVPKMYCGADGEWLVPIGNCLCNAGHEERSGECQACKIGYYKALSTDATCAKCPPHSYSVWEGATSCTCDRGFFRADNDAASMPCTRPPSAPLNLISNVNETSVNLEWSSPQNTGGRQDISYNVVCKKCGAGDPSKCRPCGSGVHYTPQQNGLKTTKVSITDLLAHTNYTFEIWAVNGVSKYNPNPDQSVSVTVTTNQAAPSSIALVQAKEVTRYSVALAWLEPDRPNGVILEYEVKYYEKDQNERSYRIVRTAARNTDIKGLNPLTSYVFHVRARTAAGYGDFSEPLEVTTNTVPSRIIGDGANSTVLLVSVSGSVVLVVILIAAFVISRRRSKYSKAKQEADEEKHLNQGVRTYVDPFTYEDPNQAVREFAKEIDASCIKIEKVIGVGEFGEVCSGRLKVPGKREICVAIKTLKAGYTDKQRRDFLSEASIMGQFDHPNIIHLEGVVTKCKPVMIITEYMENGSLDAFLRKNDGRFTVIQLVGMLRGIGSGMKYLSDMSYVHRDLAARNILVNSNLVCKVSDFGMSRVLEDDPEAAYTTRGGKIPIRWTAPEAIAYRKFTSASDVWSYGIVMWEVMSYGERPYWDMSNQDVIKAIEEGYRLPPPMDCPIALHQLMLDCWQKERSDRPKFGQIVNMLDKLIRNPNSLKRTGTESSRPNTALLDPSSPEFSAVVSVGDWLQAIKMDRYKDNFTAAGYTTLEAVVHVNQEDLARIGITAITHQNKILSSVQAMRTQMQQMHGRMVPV
The protocol: as §1, §2, §3, §4

The target in the next assay is T3, FLT1 (P17948) (Homo sapiens, UniProt P17948).
T3 construct: purchased PamGene (PamChip PTK array, Upstream Kinase Analysis)
T3 sequence (P17948 27-1338): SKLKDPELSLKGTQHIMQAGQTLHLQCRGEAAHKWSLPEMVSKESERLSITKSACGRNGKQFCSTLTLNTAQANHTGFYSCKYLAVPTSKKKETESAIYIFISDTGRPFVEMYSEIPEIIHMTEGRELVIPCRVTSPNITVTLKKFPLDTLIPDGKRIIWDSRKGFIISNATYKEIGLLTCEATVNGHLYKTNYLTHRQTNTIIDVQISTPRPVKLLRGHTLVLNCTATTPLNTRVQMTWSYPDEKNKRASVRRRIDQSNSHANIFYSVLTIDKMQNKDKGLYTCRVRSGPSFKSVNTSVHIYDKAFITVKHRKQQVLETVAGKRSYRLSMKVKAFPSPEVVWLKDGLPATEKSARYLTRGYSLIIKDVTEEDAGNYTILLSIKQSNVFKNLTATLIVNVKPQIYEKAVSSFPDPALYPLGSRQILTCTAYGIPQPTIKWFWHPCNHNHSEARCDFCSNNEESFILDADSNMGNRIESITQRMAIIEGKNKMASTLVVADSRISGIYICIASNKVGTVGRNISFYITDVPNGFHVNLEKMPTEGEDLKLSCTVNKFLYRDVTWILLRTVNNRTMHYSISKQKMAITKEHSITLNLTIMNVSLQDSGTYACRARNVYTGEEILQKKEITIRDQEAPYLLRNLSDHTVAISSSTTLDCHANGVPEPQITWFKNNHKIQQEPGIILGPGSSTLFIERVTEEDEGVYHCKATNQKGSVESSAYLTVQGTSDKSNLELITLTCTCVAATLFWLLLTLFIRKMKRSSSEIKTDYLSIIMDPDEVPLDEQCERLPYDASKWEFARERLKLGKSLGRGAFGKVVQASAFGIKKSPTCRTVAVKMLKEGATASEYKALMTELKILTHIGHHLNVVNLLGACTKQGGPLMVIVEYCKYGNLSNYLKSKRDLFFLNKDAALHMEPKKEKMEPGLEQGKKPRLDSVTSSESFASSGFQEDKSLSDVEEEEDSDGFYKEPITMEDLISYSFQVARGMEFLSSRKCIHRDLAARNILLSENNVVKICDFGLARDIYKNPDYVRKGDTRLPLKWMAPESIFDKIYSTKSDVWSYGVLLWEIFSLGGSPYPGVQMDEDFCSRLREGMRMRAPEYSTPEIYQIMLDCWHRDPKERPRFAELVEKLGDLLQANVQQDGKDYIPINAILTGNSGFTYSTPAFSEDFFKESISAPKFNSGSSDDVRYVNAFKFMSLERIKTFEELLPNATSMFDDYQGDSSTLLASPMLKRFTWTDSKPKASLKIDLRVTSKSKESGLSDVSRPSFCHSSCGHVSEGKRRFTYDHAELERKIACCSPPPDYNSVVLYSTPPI
The protocol: as §1, §2, §3, §4

The next assay concerns the target T4, PDGFR[beta] (P09619) (Homo sapiens, UniProt P09619).
T4 construct: purchased PamGene (PamChip PTK array, Upstream Kinase Analysis)
The protocol: as §1, §2, §3, §4

The target of the next assay is T5, SRM (Q9H3Y6) (Homo sapiens, UniProt Q9H3Y6).
T5 construct: purchased PamGene (PamChip PTK array, Upstream Kinase Analysis)
T5 sequence (Q9H3Y6 whole entry): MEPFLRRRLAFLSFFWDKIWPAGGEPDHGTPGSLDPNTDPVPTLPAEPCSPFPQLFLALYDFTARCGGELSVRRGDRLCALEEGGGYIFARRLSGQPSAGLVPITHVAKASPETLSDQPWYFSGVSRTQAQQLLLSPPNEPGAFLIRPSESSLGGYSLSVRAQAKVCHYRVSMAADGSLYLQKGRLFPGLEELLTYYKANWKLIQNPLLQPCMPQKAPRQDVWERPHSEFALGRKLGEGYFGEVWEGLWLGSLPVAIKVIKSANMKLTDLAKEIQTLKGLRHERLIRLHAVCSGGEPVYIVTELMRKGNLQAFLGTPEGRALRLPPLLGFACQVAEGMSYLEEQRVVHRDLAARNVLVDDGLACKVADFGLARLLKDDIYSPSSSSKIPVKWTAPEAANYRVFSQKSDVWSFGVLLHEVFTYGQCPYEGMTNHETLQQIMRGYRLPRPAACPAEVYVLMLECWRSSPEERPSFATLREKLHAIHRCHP
The protocol:
as §1, §2, §3, §4

“And” between values parts separate entries of the source, which are not always exact repeats. Equal entries are not always repeated.

T4 sequence (P09619 33-1106): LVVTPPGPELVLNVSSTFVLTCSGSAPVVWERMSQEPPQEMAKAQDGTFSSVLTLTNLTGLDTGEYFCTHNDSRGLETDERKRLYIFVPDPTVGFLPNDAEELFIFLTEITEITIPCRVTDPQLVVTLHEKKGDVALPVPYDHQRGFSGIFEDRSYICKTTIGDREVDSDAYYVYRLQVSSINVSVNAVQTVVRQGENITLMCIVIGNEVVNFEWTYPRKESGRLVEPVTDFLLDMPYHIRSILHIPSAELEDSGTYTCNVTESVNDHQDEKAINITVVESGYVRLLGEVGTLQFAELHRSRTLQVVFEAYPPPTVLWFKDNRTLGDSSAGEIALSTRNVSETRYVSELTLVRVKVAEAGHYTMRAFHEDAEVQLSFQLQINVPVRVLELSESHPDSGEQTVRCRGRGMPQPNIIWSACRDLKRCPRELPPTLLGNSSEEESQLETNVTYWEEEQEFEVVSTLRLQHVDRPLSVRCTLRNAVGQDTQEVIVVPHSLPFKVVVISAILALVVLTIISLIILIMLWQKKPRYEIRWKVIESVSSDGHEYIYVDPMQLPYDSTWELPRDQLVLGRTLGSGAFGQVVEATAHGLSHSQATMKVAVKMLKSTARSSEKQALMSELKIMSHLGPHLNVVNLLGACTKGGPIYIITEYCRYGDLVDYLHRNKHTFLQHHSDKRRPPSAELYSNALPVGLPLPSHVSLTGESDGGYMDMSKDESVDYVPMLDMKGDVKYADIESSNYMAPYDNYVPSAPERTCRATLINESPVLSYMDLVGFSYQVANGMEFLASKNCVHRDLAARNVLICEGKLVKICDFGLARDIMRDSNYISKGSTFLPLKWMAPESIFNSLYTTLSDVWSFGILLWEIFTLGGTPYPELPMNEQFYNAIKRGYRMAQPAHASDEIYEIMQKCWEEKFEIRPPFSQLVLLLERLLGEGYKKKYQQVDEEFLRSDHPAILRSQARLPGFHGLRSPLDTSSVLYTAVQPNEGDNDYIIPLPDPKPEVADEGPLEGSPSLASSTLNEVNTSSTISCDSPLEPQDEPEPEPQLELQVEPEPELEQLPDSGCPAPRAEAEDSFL

As to `COc1ccc(/C=C2\N=C(C)N(c3ccc(CC(=O)NCc4ccccc4)cc3)C2=O)cc1` [Compound 4c, (Z)-N-Benzyl-2-(4-(4-(4-methoxybenzylidene)-2-methyl-5-oxo-4,5-dihydro-1H-imidazol-1-yl)phenyl)acetamide], the “Mean Final score (Kinase score)” value at EphA1 (P21709) was 2.326; on EphA4 (P54764), 1.356; on FLT1 (P17948) (listed as KIM-161), 3.23 and 3.228; on PDGFR[beta] (P09619) it was 2.559; on SRM (Q9H3Y6) (listed as KIM-161) it was 4.1 and 4.097. Also, the “Mean Kinase Statistic” value on EphA1 (P21709) is on record as -1.184; on EphA4 (P54764), -0.7819; on PDGFR[beta] (P09619) it was -1.304. The “Mean Significance Score” value on EphA1 (P21709) came to 1.983; on EphA4 (P54764), 1.252; at FLT1 (P17948), 2.048; on PDGFR[beta] (P09619) it was 2.048; on SRM (Q9H3Y6) it was 2.048. The “Mean Specificity Score” value on EphA1 (P21709) is reported as 0.3263; at EphA4 (P54764), 0.07789; at FLT1 (P17948), 1.113; on PDGFR[beta] (P09619) it was 0.562; on SRM (Q9H3Y6), 1.961.
